Reference: ChEMBL document CHEMBL5252665, “The Identification of GPR52 Agonist HTL0041178, a Potential Therapy for Schizophrenia and Related Psychiatric Disorders” (ACS Med Chem Lett, 2023)

Legend:
[1] = Octanol-water partition coefficient, log D of the compound by chromatographic method; format: physicochemical
[2] = Metabolic stability in rat liver microsomes assessed as intrinsic clearance preincubation with compound followed by NADPH addition and measured after 45 mins by LC-MS/MS analysis; format: ADME, Microsome; settings: read-out: CLH
[3] = Metabolic stability in human liver microsomes assessed as intrinsic clearance preincubation with compound followed by NADPH addition and measured after 45 mins by LC-MS/MS analysis; format: ADME, Microsome; settings: read-out: CLH
[4] = Apparent permeability of compound across apical to basolateral side in dog MDCK-MDR1 cells incubated for 1 hr by LC-MS/MS analysis; format: ADME, cell-based, Canis lupus familiaris
[5] = Clearance in Sprague-Dawley rat plasma at 1 mg/kg,iv by LC-MS/MS analysis; format: ADME, organism-based
[6] = Volume of distribution at steady state in Sprague-Dawley rat at 1 mg/kg,iv by LC-MS/MS analysis; format: ADME, organism-based; settings: in vivo, read-out: Vdss
[7] = Half life in Sprague-Dawley rat at 1 mg/kg,iv by LC-MS/MS analysis; format: ADME, organism-based; settings: in vivo
[8] = AUC (0 to infinity) in Sprague-Dawley rat at 1 mg/kg,iv by LC-MS/MS analysis; format: ADME, organism-based; parameters: dose 1 mg/kg, route iv; settings: in vivo
[9] = Unbound brain-to-plasma concentration ratio in Sprague-Dawley rat plasma at 1 mg/kg,iv by LC-MS/MS analysis; format: ADME, organism-based; settings: brain and plasma, read-out: K(p,uu,brain)
[10] = AUC (0 to infinity) in Sprague-Dawley rat at 3 mg/kg,po by LC-MS/MS analysis; format: ADME, organism-based; parameters: dose 3 mg/kg, route po; settings: in vivo
[11] = Cmax in Sprague-Dawley rat at 3 mg/kg,po by LC-MS/MS analysis; format: ADME, organism-based; parameters: dose 3 mg/kg, route po; settings: in vivo
[12] = Oral bioavailability in Sprague-Dawley rat at 3 mg/kg by LC-MS/MS analysis; format: ADME, organism-based; settings: in vivo
[13] = Oral absorption in Sprague-Dawley rat at 3 mg/kg by LC-MS/MS analysis; format: ADME, organism-based; settings: in vivo
[14] = Lipophilicity, logP of the compound by shake flask assay; format: physicochemical; settings: octanol/water
[15] = Clearance in CD-1 mouse plasma at 1 mg/kg,iv by LC-MS/MS analysis; format: ADME, organism-based
[16] = Volume of distribution at steady state in CD-1 mouse at 1 mg/kg,iv by LC-MS/MS analysis; format: ADME, organism-based; settings: in vivo, read-out: Vdss
[17] = Half life in CD-1 mouse at 1 mg/kg,iv by LC-MS/MS analysis; format: ADME, organism-based; settings: in vivo
[18] = AUC (0 to infinity) in CD-1 mouse at 1 mg/kg,iv by LC-MS/MS analysis; format: ADME, organism-based; parameters: dose 1 mg/kg, route iv; settings: in vivo
[19] = AUC (0 to infinity) in CD-1 mouse at 3 mg/kg,po by LC-MS/MS analysis; format: ADME, organism-based; parameters: dose 3 mg/kg, route po; settings: in vivo
[20] = Cmax in CD-1 mouse at 3 mg/kg,po by LC-MS/MS analysis; format: ADME, organism-based; parameters: dose 3 mg/kg, route po; settings: in vivo
[21] = Oral bioavailability in CD-1 mouse at 3 mg/kg by LC-MS/MS analysis; format: ADME, organism-based; settings: in vivo
[22] = Oral absorption in CD-1 mouse at 3 mg/kg by LC-MS/MS analysis; format: ADME, organism-based; settings: in vivo
[23] = Clearance in cynomolgus monkey plasma at 1 mg/kg,iv by LC-MS/MS analysis; format: ADME, organism-based, Macaca fascicularis
[24] = Volume of distribution at steady state in cynomolgus monkey at 1 mg/kg,iv by LC-MS/MS analysis; format: ADME, organism-based, Macaca fascicularis; settings: in vivo, read-out: Vdss
[25] = Half life in cynomolgus monkey at 1 mg/kg,iv by LC-MS/MS analysis; format: ADME, organism-based, Macaca fascicularis; settings: in vivo
[26] = AUC (0 to infinity) in cynomolgus monkey at 1 mg/kg,iv by LC-MS/MS analysis; format: ADME, organism-based, Macaca fascicularis; parameters: dose 1 mg/kg, route iv; settings: in vivo
[27] = AUC (0 to infinity) in cynomolgus monkey at 3 mg/kg,po by LC-MS/MS analysis; format: ADME, organism-based, Macaca fascicularis; parameters: dose 3 mg/kg, route po; settings: in vivo
[28] = Cmax in cynomolgus monkey at 3 mg/kg,po by LC-MS/MS analysis; format: ADME, organism-based, Macaca fascicularis; parameters: dose 3 mg/kg, route po; settings: in vivo
[29] = Oral bioavailability in cynomolgus monkey at 3 mg/kg by LC-MS/MS analysis; format: ADME, organism-based, Macaca fascicularis; settings: in vivo
[30] = Oral absorption in cynomolgus monkey at 3 mg/kg by LC-MS/MS analysis; format: ADME, organism-based, Macaca fascicularis; settings: in vivo, read-out: Drug absorption
[31] = Terminal brain concentration in Sprague-Dawley rat model of amphetamine-induced hyperlocomotion activity at 10 mg/kg, po measured after 2 hrs by LC-MS/MS analysis; format: ADME, organism-based; settings: read-out: Clast
[32] = Terminal free brain concentration in Sprague-Dawley rat model of amphetamine-induced hyperlocomotion activity at 10 mg/kg, po measured after 2 hrs by LC-MS/MS analysis; format: ADME, organism-based; settings: in vivo

O=C1NCCc2c1nnn2-c1ccnc(Cc2cc(F)cc(C(F)(F)F)c2)c1
chromatographic logD [1]: 4

O=C1NCCc2c1cnn2-c1cc(Cc2cccc(C(F)(F)F)c2)ccn1
microsomal CLint [2]: 46 µL/min/mg
microsomal CLint [3]: < 10 µL/min/mg
Papp A→B at 1 h [4]: 46 ×10⁻⁶ cm/s
chromatographic logD [1]: 4.9
clearance [5]: 39 mL/min/kg
Vd [6]: 1.5 L/kg
half-life [7]: 0.6 h
AUC(0-inf) [8]: 440 ng·h/mL
Kp uu [9]: 0.4
AUC(0-inf) [10]: 709 ng·h/mL
Cmax [11]: 143 ng/mL
bioavailability [12]: 54%
Fa [13]: > 100%

O=C1NCc2c1cnn2-c1ccnc(Cc2cc(F)cc(C(F)(F)F)c2)c1
chromatographic logD [1]: 4

O=C1NCCCc2c1cnn2-c1ccnc(Cc2cc(F)cc(C(F)(F)F)c2)c1
microsomal CLint [2]: 102 µL/min/mg
microsomal CLint [3]: 21 µL/min/mg
chromatographic logD [1]: 4.2

CN1CCc2c(cnn2-c2cc(Cc3cc(F)cc(C(F)(F)F)c3)ccn2)C1=O
microsomal CLint [2]: 33 µL/min/mg
microsomal CLint [3]: 62 µL/min/mg
Papp A→B at 1 h [4]: 30 ×10⁻⁶ cm/s
chromatographic logD [1]: 5.8

Cc1nn(-c2ccnc(Cc3cc(F)cc(C(F)F)c3)c2)c2c1C(=O)NCC2
microsomal CLint [2]: 71 µL/min/mg
microsomal CLint [3]: 32 µL/min/mg
Papp A→B at 1 h [4]: 28 ×10⁻⁶ cm/s
chromatographic logD [1]: 3.6

O=C1NCCc2c1cnn2-c1ccnc(Cc2cc(F)c(Cl)c(C(F)(F)F)c2)c1
microsomal CLint [2]: 57 µL/min/mg
microsomal CLint [3]: 24 µL/min/mg
chromatographic logD [1]: 4.6

Cc1nn(-c2ccnc(Cc3cc(F)cc(C(F)(F)F)c3)c2)c2c1C(=O)NCC2
microsomal CLint [2]: 40 µL/min/mg
microsomal CLint [3]: 31 µL/min/mg
Papp A→B at 1 h [4]: 46 ×10⁻⁶ cm/s
chromatographic logD [1]: 4.4

O=C1NCCc2c1cnn2-c1cncc(Cc2cc(F)cc(C(F)(F)F)c2)c1
microsomal CLint [2]: 25 µL/min/mg
microsomal CLint [3]: < 10 µL/min/mg
Papp A→B at 1 h [4]: 38 ×10⁻⁶ cm/s
chromatographic logD [1]: 3.8
logP [14]: 4

Cc1nn(-c2cncc(Cc3cc(F)cc(C(F)(F)F)c3)c2)c2c1C(=O)NCC2
microsomal CLint [2]: 63 µL/min/mg
microsomal CLint [3]: 27 µL/min/mg
Papp A→B at 1 h [4]: 48 ×10⁻⁶ cm/s
chromatographic logD [1]: 4.1

O=C1NCCc2c1cnn2-c1ccnc(Cc2cc(F)cc(C(F)(F)F)c2)c1
microsomal CLint [2]: 25 µL/min/mg
microsomal CLint [3]: 11 µL/min/mg
Papp A→B at 1 h [4]: 48 ×10⁻⁶ cm/s
chromatographic logD [1]: 3.9
logP [14]: 4.2
clearance [5]: 16 mL/min/kg
Vd [6]: 1 L/kg
half-life [7]: 0.8 h
AUC(0-inf) [8]: 1020 ng·h/mL
Kp uu [9]: 0.35
AUC(0-inf) [10]: 1260 ng·h/mL
Cmax [11]: 285 ng/mL
bioavailability [12]: 40%
Fa [13]: 52%
clearance [15]: 6 mL/min/kg
Vd [16]: 1.5 L/kg
half-life [17]: 3.4 h
AUC(0-inf) [18]: 2610 ng·h/mL
AUC(0-inf) [19]: 5910 ng·h/mL
Cmax [20]: 486 ng/mL
bioavailability [21]: 95%
Fa [22]: 80%
clearance [23]: 2 mL/min/kg
Vd [24]: 1.4 L/kg
half-life [25]: 8 h
AUC [26]: 7854 ng·h/mL
AUC [27]: 6327 ng·h/mL
Cmax [28]: 581 ng/mL
F [29]: 81%
Fa [30]: 85%
concentration at 2 h [31]: 1560 nM
Drug uptake(free) [32]: 41.2 nM

O=C1CCCc2c1cnn2-c1cc(Cc2cccc(C(F)(F)F)c2)ccn1
microsomal CLint [2]: 120 µL/min/mg
microsomal CLint [3]: 50 µL/min/mg
Papp A→B at 1 h [4]: 25 ×10⁻⁶ cm/s
chromatographic logD [1]: 6.7

O=C1NCCc2c1cnn2-c1cc(Cc2cc(F)cc(C(F)(F)F)c2)ccn1
microsomal CLint [2]: 30 µL/min/mg
microsomal CLint [3]: 15 µL/min/mg
Papp A→B at 1 h [4]: 32 ×10⁻⁶ cm/s
chromatographic logD [1]: 5.1
logP [14]: 3.1

Cc1nn(-c2ccnc(Cc3cc(F)cc(OC(F)F)c3)c2)c2c1C(=O)NCC2
microsomal CLint [2]: 63 µL/min/mg
microsomal CLint [3]: 34 µL/min/mg
Papp A→B at 1 h [4]: 32 ×10⁻⁶ cm/s
chromatographic logD [1]: 3.9

O=C1NCCc2c1cnn2-c1ccnc(Cc2cc(F)cc(C(F)F)c2)c1
microsomal CLint [2]: 37 µL/min/mg
microsomal CLint [3]: 15 µL/min/mg
Papp A→B at 1 h [4]: 30 ×10⁻⁶ cm/s
chromatographic logD [1]: 3.3

O=C1NCCc2c1cnn2-c1cccc(Cc2cc(F)cc(C(F)(F)F)c2)c1
microsomal CLint [2]: 48 µL/min/mg
microsomal CLint [3]: < 10 µL/min/mg
chromatographic logD [1]: 5

O=C1NCCc2nn(-c3ccnc(Cc4cc(F)cc(C(F)(F)F)c4)c3)cc21
chromatographic logD [1]: 4.4
